Here are results for six molecules from ChEMBL document CHEMBL3044795, “Synthesis and biological evaluation of novel benzoquinones as potential antimicrobial agents” (2013).

Common to all, as to format: functional
The test system of experiment [1] is Staphylococcus aureus. Briefly: Antibacterial activity against Staphylococcus aureus DSM 1104 assessed as diamater of growth inhibition zone after 24 hr by agar cup diffusion method.
In experiment [2] the test system is Candida albicans. Briefly: Antifungal activity against Candida albicans DSM 70014 assessed as growth inhibition after 48 hr. The note with it: DSM 70014, 48 h.
The test system of experiment [3] is Bacillus subtilis. Briefly: Antibacterial activity against Bacillus subtilis ATCC 6633 assessed as growth inhibition after 24 hr. Conditions: ATCC 6633, 24 h.
The test system of experiment [4] is Bacillus subtilis. Briefly: Antibacterial activity against Bacillus subtilis ATCC 6633 assessed as diamater of growth inhibition zone after 24 hr by agar cup diffusion method.
Experiment [5] has as its system Escherichia coli. Briefly: Antibacterial activity against Escherichia coli ATCC 11775 assessed as growth inhibition after 24 hr. Conditions: ATCC 11775, 24 h.
Experiment [6] has as its system Staphylococcus aureus. Briefly: Antibacterial activity against Staphylococcus aureus DSM 1104 assessed as growth inhibition after 24 hr. The note with it: DSM 1104, 24 h.
The test system of experiment [7] is Candida albicans. Briefly: Antifungal activity against Candida albicans DSM 70014 assessed as growth inhibition after 48 hr by two-fold serial dilution method. Conditions: DSM 70014, 48 h.
The test system of experiment [8] is Staphylococcus aureus. Briefly: Antibacterial activity against Staphylococcus aureus DSM 1104 assessed as growth inhibition after 24 hr by two fold serial dilution method. Conditions: DSM 1104, 24 h.
The subject of experiment [9] is Pseudomonas aeruginosa. Briefly: Antibacterial activity against Pseudomonas aeruginosa ATCC 10145 assessed as growth inhibition after 24 hr. The note with it: ATCC 10145, 24 h.
In experiment [10] the test system is Pseudomonas aeruginosa. Briefly: Antibacterial activity against Pseudomonas aeruginosa ATCC 10145 assessed as growth inhibition after 24 hr by two-fold serial dilution method. Conditions: ATCC 10145, 24 h.
In experiment [11] the test system is Bacillus subtilis. Briefly: Antibacterial activity against Bacillus subtilis ATCC 6633 assessed as growth inhibition after 24 hr by two fold serial dilution method. The note with it: ATCC 6633, 24 h.
In experiment [12] the test system is Candida albicans. Briefly: Antifungal activity against Candida albicans DSM 70014 assessed as diamater of growth inhibition zone after 48 hr by agar cup diffusion method.
Experiment [13] deals with Pseudomonas aeruginosa. Briefly: Antibacterial activity against Pseudomonas aeruginosa ATCC 10145 assessed as diamater of growth inhibition zone after 24 hr by agar cup diffusion method.
In experiment [14] the test system is Escherichia coli. Briefly: Antibacterial activity against Escherichia coli ATCC 11775 assessed as growth inhibition after 24 hr by two-fold serial dilution method. The note with it: ATCC 11775, 24 h.
Experiment [15] has as its system Escherichia coli. Briefly: Antibacterial activity against Escherichia coli ATCC 11775 assessed as diamater of growth inhibition zone after 24 hr by agar cup diffusion method.

The structures appear in SMILES notation. ≈ marks a conversion by molar mass, not a printed value.

Regarding `COc1ccc(/C=N/N=c2\scc(-c3cc(O)ccc3O)n2-c2ccc(Cl)cc2)cc1O`, the “diameter of the inhibition zone (DIZ)” value in [1] came to 14 mm; in [4], 14 mm; in [12], 12 mm; in [13], 14 mm; in [15], 13 mm. Also, the MFC in experiment [2] was 50 µg/mL (≈ 107 µM). The MBC in experiment [3] came out at 100 µg/mL (≈ 214 µM); in [5], 100 µg/mL (≈ 214 µM); in experiment [6], 50 µg/mL (≈ 107 µM); in experiment [9], 100 µg/mL (≈ 214 µM). Moreover, the MIC in experiment [7] came out at 25 µg/mL (≈ 53.4 µM); in experiment [8] it was 25 µg/mL (≈ 53.4 µM); in experiment [10], 100 µg/mL (≈ 214 µM); in [11], 50 µg/mL (≈ 107 µM); in experiment [14], 100 µg/mL (≈ 214 µM).

`COc1ccc(/C=N/N=c2\scc(C3=CC(=O)C=CC3=O)n2-c2ccccc2)cc1`: the “diameter of the inhibition zone (DIZ)” value in [1] is 15 mm; in experiment [4], 15 mm; in [12], 15 mm; in experiment [13], 15 mm; in experiment [15], 16 mm. The MFC in experiment [2] is 50 µg/mL (≈ 120 µM). In addition, the MBC in experiment [3], in experiment [5], in [6] and in experiment [9] was 50 µg/mL (≈ 120 µM) in each case. Further, the minimum inhibitory concentration (MIC) in experiment [7] is 50 µg/mL (≈ 120 µM); in [8], 50 µg/mL (≈ 120 µM); in experiment [10], 50 µg/mL (≈ 120 µM); in experiment [11] it was 50 µg/mL (≈ 120 µM); in experiment [14], 25 µg/mL (≈ 60.2 µM).

Consider `COc1ccc(OC)c(/C=N/N=c2\scc(C3=CC(=O)C=CC3=O)n2-c2ccccc2)c1`, for which the “diameter of the inhibition zone (DIZ)” value in experiment [1] is given as 14 mm; in experiment [4] it was 15 mm; in experiment [12], 15 mm; in experiment [13] it was 14 mm; in experiment [15], 14 mm. Besides, in experiment [2], the MFC was found to be 50 µg/mL (≈ 112 µM). In addition, the MBC in experiment [3], in [5], in [6] and in experiment [9] was 50 µg/mL (≈ 112 µM) in each case. Further, the MIC in experiment [7], in [8], in [10], in experiment [11] and in experiment [14] was 50 µg/mL (≈ 112 µM) throughout.

As for `COc1ccc(/C=N/N=c2\scc(-c3cc(O)ccc3O)n2-c2ccccc2)cc1`, the “diameter of the inhibition zone (DIZ)” value came out at 14 mm in [1]; 15 mm in experiment [4]; 12 mm in experiment [12]; 14 mm in experiment [13]; 14 mm in experiment [15]. Moreover, the MFC in experiment [2] is 50 µg/mL (≈ 120 µM). Besides, the MBC in [3], in [5], in experiment [6] and in [9] was 50 µg/mL (≈ 120 µM) in each case. Moreover, the MIC in [7], in experiment [8], in experiment [10], in experiment [11] and in [14] was 50 µg/mL (≈ 120 µM) throughout.

For the molecule `COc1ccc(OC)c(/C=N/N=c2\scc(-c3cc(O)ccc3O)n2-c2ccccc2)c1`, the “diameter of the inhibition zone (DIZ)” value in experiment [1] is on record as 16 mm; in [4], 15 mm; in experiment [12], 14 mm; in [13] it was 16 mm; in [15] it was 18 mm. For the same molecule, in experiment [2], the minimal fungicidal concentration (MFC) worked out at 50 µg/mL (≈ 112 µM). Also, the MBC in experiment [3] was found to be 25 µg/mL (≈ 55.9 µM); in experiment [5], 25 µg/mL (≈ 55.9 µM); in [6], 50 µg/mL (≈ 112 µM); in experiment [9] it was 25 µg/mL (≈ 55.9 µM). In addition, the MIC in experiment [7] was 25 µg/mL (≈ 55.9 µM); in [8] it was 50 µg/mL (≈ 112 µM); in [10] it was 12.5 µg/mL (≈ 27.9 µM); in [11], 12.5 µg/mL (≈ 27.9 µM); in [14], 12.5 µg/mL (≈ 27.9 µM).

Turning to `COc1cc(/C=N/N=c2\scc(-c3cc(O)ccc3O)n2-c2ccccc2)ccc1O`, the “diameter of the inhibition zone (DIZ)” value in experiment [1] stood at 15 mm; in experiment [4] it was 16 mm; in experiment [12] it was 15 mm; in experiment [13], 15 mm; in experiment [15], 14 mm. Moreover, the MFC in [2] worked out at 25 µg/mL (≈ 57.7 µM). Moreover, the MBC was 50 µg/mL (≈ 115 µM) in experiment [3], 25 µg/mL (≈ 57.7 µM) in [5], 25 µg/mL (≈ 57.7 µM) in experiment [6] and 50 µg/mL (≈ 115 µM) in experiment [9]. The MIC in experiment [7] was 12.5 µg/mL (≈ 28.8 µM); in experiment [8], 12.5 µg/mL (≈ 28.8 µM); in experiment [10] it was 50 µg/mL (≈ 115 µM); in experiment [11] it was 50 µg/mL (≈ 115 µM); in experiment [14], 12.5 µg/mL (≈ 28.8 µM).

For orientation: MFC means the smallest concentration meeting the test's criterion for killing the fungus. For orientation: MBC means the lowest tested concentration that kills the bacteria rather than only halting them. As a reminder, the MIC is the smallest concentration in the dilution series that meets the test's criterion for growth inhibition.
